Measurements published in US20160339005A1, “COMPOSITIONS AND METHODS FOR TREATING OCULAR DISEASES” (AKEBIA THERAPEUTICS, INC., priority 2014, published 2016).
Entries after “also recorded” stand apart in the source; their conditions may differ.

System: choroidal neovascularization (CNV)
Test: Rodent model of surgically (laser) induced CNV, intravitreal injection, fluorescein angiography lesion areas
Format: in vivo, Brown Norway rats
Design: Mean of lesion areas, Left Eye (OS) / Mean of lesion areas, Both Eyes (OU): unit not given here
Settings: for fluorescein leakage in fluorescein angiography images: sample animal
From the text: In one example, twenty-four (24) naïve, male Brown Norway rats, 225-250 g at study start, are acclimated for a minimum of 5 days prior to dosing. Animals are weighed prior to dosing and at euthanasia. All animals undergo pre-screening ophthalmic examinations prior to study start as follows:
CNV is then induced via laser treatment (e.g. laser photocoagulation (20-100-μm spot size; 0.05-0.1 seconds duration; 50 to 200 mW) at six positions of the posterior pole in each eye) by a board certified veterinary ophthalmologist. Only animals in which the laser produces a bubble indicating rupture of Bruch's membrane, are included in the study. The compound is administered in suitable form of a Test Article. Test and Control Article treatment begin 3 days post laser induction. In another experiment, the Test and Control Article treatments begin prior to or immediately post induction, in yet other experiments, Test and Control Article treatments begin 10 days post induction. Study duration is 3 weeks, with the option to extend on a weekly basis based on extent of healing. Animals have clinical ophthalmic examinations and fluorescein angiography approximately 3 days post-induction (prior to Test Article treatment) to confirm disease state. The route of administration for Test Article(s) and vehicle control is intravitreal (IVT) injection on Day 1, which is approximately 3-4 days post-induction, once the CNV disease state has been confirmed.
In the first experiment, a low dose (5 μL at 3.7 mg/mL) and a high dose (5 μL at 7.8 mg/mL) of the compound are evaluated against vehicle control. The three treatment groups are (N=8 per group, 24 animals total):
A. Test Article—Low Dose (19 μg/eye)
B. Test Article—High Dose (39 μg/eye)
Daily gross ocular observations and general health observations are performed. Additional exams, performed weekly up to 3 weeks post Test Article dosing, include clinical ophthalmic exams, slit-lamp biomicroscopy, indirect ophthalmoscopy, and fluorescein staining if needed. Ocular findings are scored using the McDonald-Shadduck scoring system.
Fluorescein angiography (e.g. using Heidelberg SPECTRALIS® instrumentation) is performed to determine the degree of neovascularization (NV) in the retina and/or choroid. After fluorescein angiography, tissues are then harvested for possible future analysis (e.g. eyes are fixed in Davidson's solution and then transferred to 70% ethanol). Alternatively, the area of retinal and/or choroidal NV can be determined in various other ways. In one example, prior to sacrifice, the rodents are perfused with PBS containing 50 mg/mL of fluorescein-labeled dextran (2×10^6 Da average molecular mass). Alternatively, fluorescein-labeled Lycopersicon esculentum (tomato) lectin can be used. The choroids are then flat mounted and examined by fluorescence microscopy. A standard image analysis software is then used to measure the total area of retinal/choroidal NV with the investigator masked with respect to treatment group.
Results from an initial experiment treating animals with a control vehicle, low dose (19 μg/eye), or high dose (39 μg/eye) of Compound 7 are shown in FIGS. 1-6.
Animals were dosed on Day 3. […] The surrounding regions around the laser burn continued to show a higher fluorescence from Days 3-14. Day 9 intensities were attenuated due to the presence of fluorescein in both the anterior and posterior chambers of the eye.
FIGS. 4-6 and Tables 1-3 below show Mean (±SEM) of lesion areas in the right, left and both eyes, respectively.

[1] = High Dose (39 μg/eye, 5 μL at 7.8 mg/mL) IVT, Day 3 (prior to dosing)
[2] = High Dose (39 μg/eye, 5 μL at 7.8 mg/mL) IVT, Day 9
[3] = High Dose (39 μg/eye, 5 μL at 7.8 mg/mL) IVT, Day 14
[4] = High dose (39 μg/eye) IVT, Day 3 (baseline)
[5] = High dose (39 μg/eye) IVT, Day 9
[6] = High dose (39 μg/eye) IVT, Day 14
[7] = Low Dose (19 μg/eye, 5 μL at 3.7 mg/mL) IVT, Day 3 (prior to dosing)
[8] = Low Dose (19 μg/eye, 5 μL at 3.7 mg/mL) IVT, Day 9
[9] = Low Dose (19 μg/eye, 5 μL at 3.7 mg/mL) IVT, Day 14
[10] = Low dose (19 μg/eye) IVT, Day 3 (baseline)
[11] = Low dose (19 μg/eye) IVT, Day 9
[12] = Low dose (19 μg/eye) IVT, Day 14

O=C(O)CNC(=O)c1ncc(-c2cccc(F)c2)cc1O [Compound 7, {[5-(3-fluorophenyl)-3-hydroxypyridine-2-carbonyl]amino} acetic acid]
Mean of lesion areas, Both Eyes (OU) [1]: 4.21 | Mean of lesion areas, Left Eye (OS) [1]: 3.86 | Mean of lesion areas, Right Eye (OD) [1]: 4.56 | Mean of lesion areas, Both Eyes (OU) [2]: 1.71 | Mean of lesion areas, Left Eye (OS) [2]: 1.68 | Mean of lesion areas, Right Eye (OD) [2]: 1.75 | Mean of lesion areas, Both Eyes (OU) [3]: 0.71 | Mean of lesion areas, Left Eye (OS) [3]: 0.84 | Mean of lesion areas, Right Eye (OD) [3]: 0.58 | percentage area reduction of lesion areas, Both Eyes [4]: 0.00% | percentage area reduction of lesion areas, Left Eye [4]: 0.00% | percentage area reduction of lesion areas, Right Eye [4]: 0.00% | percentage area reduction of lesion areas, Both Eyes [5]: −53.83% | percentage area reduction of lesion areas, Left Eye [5]: −46.66% | percentage area reduction of lesion areas, Right Eye [5]: −61.00% | percentage area reduction of lesion areas, Both Eyes [6]: −83.63% | percentage area reduction of lesion areas, Left Eye [6]: −79.77% | percentage area reduction of lesion areas, Right Eye [6]: −87.49% | Mean of lesion areas, Both Eyes (OU) [7]: 3.74 | Mean of lesion areas, Left Eye (OS) [7]: 3.48 | Mean of lesion areas, Right Eye (OD) [7]: 4.01 | Mean of lesion areas, Both Eyes (OU) [8]: 1.84 | Mean of lesion areas, Left Eye (OS) [8]: 1.81 | Mean of lesion areas, Right Eye (OD) [8]: 1.88 | Mean of lesion areas, Both Eyes (OU) [9]: 0.96 | Mean of lesion areas, Left Eye (OS) [9]: 1.02 | Mean of lesion areas, Right Eye (OD) [9]: 0.90 | percentage area reduction of lesion areas, Both Eyes [10]: 0.00% | percentage area reduction of lesion areas, Left Eye [10]: 0.00% | percentage area reduction of lesion areas, Right Eye [10]: 0.00% | percentage area reduction of lesion areas, Both Eyes [11]: −48.43% | percentage area reduction of lesion areas, Left Eye [11]: −44.39% | percentage area reduction of lesion areas, Right Eye [11]: −52.47% | percentage area reduction of lesion areas, Both Eyes [12]: −73.63% | percentage area reduction of lesion areas, Left Eye [12]: −68.00% | percentage area reduction of lesion areas, Right Eye [12]: −79.25% | vascular leakage in the ocular vasculature compared with vehicle control (lesion areas over time) (low dose and high dose, FIGS. 4-6 (OD, OS, OU)): reduction of vascular leakage | overall fluorescence and leakage compared to animals treated with vehicle control (low or high doses (19 or 39 μg/eye) IVT): reduced overall fluorescence and leakage | fluorescein leakage in fluorescein angiography images (high dose (5 μL at 7.8 mg/mL), Day 9): Lower fluorescence leakage | fluorescein leakage in fluorescein angiography images (high dose (5 μL at 7.8 mg/mL), Day 14): no fluorescein leakage was observed; also recorded: no fluorescence leakage | fluorescein leakage in fluorescein angiography images (low dose (5 μL at 3.7 mg/mL), Day 9): Lower fluorescence leakage | fluorescein leakage in fluorescein angiography images (low dose (5 μL at 3.7 mg/mL), Day 14): almost subsided completely; also recorded: minimal fluorescence leakage
